Data from patent publication US12729377B2, “RNAi agents and compositions for inhibiting expression of angiopoietin-like 3 (ANGPTL3), and methods of use” (Arrowhead Pharmaceuticals, Inc., priority 2017, dated 2026).

Columns and labels:
ANGPTL3 protein [1] = experiment: Example 7: serum ANGPTL3 protein by ELISA in mice; type: in vivo, C57bl/6 mice; design: key: ratio: (level/pre-treatment day -1 level) ÷ mean of D5W control group
Protocol: (§1) To further assess the in vivo activity of additional ANGPTL3 RNAi agents that are designed to target position 304 on the ANGPTL3 gene, six- to eight-week-old female C57bl/6 mice were used. Pre-dose serum samples were taken at day −1 after a four hour fast. At day 1, each mouse was given a single subcutaneous administration of 200 μl containing 0.5 mg/kg (mpk) of an ANGPTL3 RNAi agent in D5W (dextrose in 5% water), or control (D5W) with no RNAi agent, according to the dosing groups recited in Table 31.
(§2) Each of the RNAi agents included a modified sequence and an N-acetyl-galactosamine-containing targeting ligand conjugated to the 5′ terminal end of the sense strand. (See Tables 3, 4, and 5 for modified sequences and targeting ligand structures). The injections were performed between the skin and muscle (i.e. subcutaneous injections) into the loose skin over the neck and shoulder area. Three (3) mice in each group were tested (n=3). Serum was collected on days 8, 15, 22, and 29. Mice were fasted for four hours prior to each collection. ANGPTL3 protein levels in serum were measured by ELISA assay (R&D Systems), according to the manufacturer's recommendations. Triglycerides, total cholesterol, high-density lipoprotein (HDL), and low-density lipoprotein (LDL) in serum were measured on a Cobas® Integra 400 (Roche Diagnostics), according to the manufacturer's recommendations.
(§3) The ANGPTL3 protein levels, triglyceride levels, total cholesterol levels, HDL levels, and LDL levels for each animal were normalized. For normalization, the level of ANGPTL3 protein, triglyceride, HDL, and total cholesterol, respectively, for each animal at a time point, was divided by the pre-treatment level of expression in that animal (in this case at day −1) to determine the ratio of expression “normalized to pre-treatment.” Expression at a specific time point was then normalized to the D5W control group by dividing the “normalized to pre-treatment” ratio for an individual animal by the mean “normalized to pretreatment” ratio of all mice in the D5W control group.

ANGPTL3 gene [2] = experiment: Example 7: serum triglycerides in mice; type: in vivo, C57bl/6 mice; design: key: ratio: (level/pre-treatment day -1 level) ÷ mean of D5W control group
Protocol: as §1, §2, §3

ANGPTL3 gene [3] = experiment: Example 7: serum total cholesterol in mice; type: in vivo, C57bl/6 mice; design: key: ratio: (level/pre-treatment day -1 level) ÷ mean of D5W control group
Protocol: as §1, §2, §3

ANGPTL3 gene [4] = experiment: Example 7: serum HDL in mice; type: in vivo; design: key: ratio: (level/pre-treatment day -1 level) ÷ mean of D5W control group; settings: 0.5 mg/kg single SC injection day 1, female C57bl/6 mice, n=3, ratio to D5W control
Protocol: as §1, §2, §3

ANGPTL3 gene [5] = experiment: Example 7: serum LDL in mice; type: in vivo; design: key: ratio: (level/pre-treatment day -1 level) ÷ mean of D5W control group; settings: 0.5 mg/kg single SC injection day 1, female C57bl/6 mice, n=3, ratio to D5W control
Protocol: as §1, §2, §3

ANGPTL3 protein [6] = experiment: Example 9: serum ANGPTL3 protein by ELISA in cynomolgus monkeys; type: in vivo, cynomolgus macaque (Macaca fascicularis); settings: for Average ANGPTL3 Protein Normalized to Pre-Treatment: 2.0 mg/kg single SC injection day 1, cynos, n=3
Protocol: (§4) Additional ANGPTL3 RNAi agents were evaluated in cynomolgus monkeys. On day 1, cynomolgus macaque (Macaca fascicularis) primates (also referred to herein as “cynos”) were administered a single subcutaneous injection of 0.3 mL/kg (approximately 2-3 mL volume, depending on animal mass) containing 2.0 mg/kg of an ANGPTL3 RNAi agent, which included either AD05488, AD05743, AD05775, or AD05841, each formulated in saline. […] ANGPTL3 RNAi agents AD05488, AD05743, and AD05775 included nucleotide sequences designed to target position 304 of the ANGPTL3 gene. ANGPTL3 RNAi agent AD05841 included nucleotide sequences designed to target position 1035 of the ANGPTL3 gene.
(§5) Three (3) cynos in each group were tested (n=3). Blood samples were drawn and serum samples were analyzed on days −14 (predose), −7 (predose), 1 (pre-dose), 8, 15, 22, 29, and 35. Cynos were fasted overnight prior to each collection. ANGPTL3 protein levels in serum were measured by ELISA assay (R&D Systems), according to the manufacturer's recommendations. Triglycerides, total cholesterol, high-density lipoprotein (HDL), and low-density lipoprotein (LDL) in serum were measured on a Cobas® Integra 400 (Roche Diagnostics), according to the manufacturer's recommendations.
(§6) The ANGPTL3 protein levels, triglyceride levels, total cholesterol levels, HDL levels, and LDL levels for each animal were normalized. For normalization, the level of ANGPTL3 protein, triglyceride, HDL, and total cholesterol, respectively, for each animal at a time point, was divided by the average pre-treatment level of expression in that animal (in this case at days −14, −7, and 1) to determine the ratio of expression “normalized to pre-treatment.”

ANGPTL3 gene [7] = experiment: Example 9: serum triglycerides in cynomolgus monkeys; type: in vivo, cynomolgus macaque (Macaca fascicularis); settings: 2.0 mg/kg single SC injection day 1, cynos, n=3
Protocol: as §4, §5, §6

ANGPTL3 gene [8] = experiment: Example 9: serum total cholesterol in cynomolgus monkeys; type: in vivo, cynomolgus macaque (Macaca fascicularis); settings: 2.0 mg/kg single SC injection day 1, cynos, n=3
Protocol: as §4, §5, §6

ANGPTL3 gene [9] = experiment: Example 9: serum HDL in cynomolgus monkeys; type: in vivo, cynomolgus macaque (Macaca fascicularis); settings: 2.0 mg/kg single SC injection day 1, cynos, n=3
Protocol: as §4, §5, §6

ANGPTL3 gene [10] = experiment: Example 9: serum LDL in cynomolgus monkeys; type: in vivo, cynomolgus macaque (Macaca fascicularis); settings: 2.0 mg/kg single SC injection day 1, cynos, n=3
Protocol: as §4, §5, §6

[11] = Day 8, 0.5 mg/kg single SC injection on day 1, n=3
[12] = Day 15, 0.5 mg/kg single SC injection on day 1, n=3
[13] = Day 22, 0.5 mg/kg single SC injection on day 1, n=3
[14] = Day 29, 0.5 mg/kg single SC injection on day 1, n=3

Substance: AD05775: RNAi agent duplex: antisense AM07235-AS, sense AM07608-SS (antisense UACUGAUCAAAUAUGUUGAGC; sense GCUCAACAUNUUUGAUCAGUA; (NAG37)s GalNAc ligand; RNAi agent antisense strand modified sequence; RNAi agent sense strand modified sequence; modified_base 10 n = 2′-O-methyl-2-aminoadenosine-3′-phosphate)
- Avg ANGPTL3, normalized to pre-treatment and control (ANGPTL3 protein [1]; [11]): 0.247
- Avg ANGPTL3, normalized to pre-treatment and control (ANGPTL3 protein [1]; [12]): 0.232
- Avg ANGPTL3, normalized to pre-treatment and control (ANGPTL3 protein [1]; [13]): 0.218
- Avg ANGPTL3, normalized to pre-treatment and control (ANGPTL3 protein [1]; [14]): 0.300
- Avg TG, normalized to pre-treatment and control (ANGPTL3 gene [2]; [11]): 0.837
- Avg TG, normalized to pre-treatment and control (ANGPTL3 gene [2]; [12]): 0.610
- Avg TG, normalized to pre-treatment and control (ANGPTL3 gene [2]; [13]): 0.819
- Avg TG, normalized to pre-treatment and control (ANGPTL3 gene [2]; [14]): 0.885
- Avg Total Chol, normalized to pre-treatment and control (ANGPTL3 gene [3]; [11]): 0.794
- Avg Total Chol, normalized to pre-treatment and control (ANGPTL3 gene [3]; [12]): 0.777
- Avg Total Chol, normalized to pre-treatment and control (ANGPTL3 gene [3]; [13]): 0.812
- Avg Total Chol, normalized to pre-treatment and control (ANGPTL3 gene [3]; [14]): 1.108
- Avg HDL, normalized to pre-treatment and control (ANGPTL3 gene [4]; Day 8): 0.754
- Avg HDL, normalized to pre-treatment and control (ANGPTL3 gene [4]; Day 15): 0.757
- Avg HDL, normalized to pre-treatment and control (ANGPTL3 gene [4]; Day 22): 0.736
- Avg HDL, normalized to pre-treatment and control (ANGPTL3 gene [4]; Day 29): 1.069
- Avg LDL, normalized to pre-treatment and control (ANGPTL3 gene [5]; Day 8): 0.975
- Avg LDL, normalized to pre-treatment and control (ANGPTL3 gene [5]; Day 15): 0.918
- Avg LDL, normalized to pre-treatment and control (ANGPTL3 gene [5]; Day 22): 1.095
- Avg LDL, normalized to pre-treatment and control (ANGPTL3 gene [5]; Day 29): 1.534
- Average ANGPTL3 Protein Normalized to Pre-Treatment (ANGPTL3 protein [6]; Day 8): 0.463
- Average ANGPTL3 Protein Normalized to Pre-Treatment (ANGPTL3 protein [6]; Day 15): 0.352
- Average ANGPTL3 Protein Normalized to Pre-Treatment (ANGPTL3 protein [6]; Day 22): 0.330
- Average ANGPTL3 Protein Normalized to Pre-Treatment (ANGPTL3 protein [6]; Day 29): 0.365
- Average ANGPTL3 Protein Normalized to Pre-Treatment (ANGPTL3 protein [6]; Day 35): 0.379
- reduction in ANGPTL3 protein compared to pre-treatment (ANGPTL3 protein [6]; each of the measured time points, single 2.0 mg/kg subcutaneous, cynomolgus monkeys): reduction
- Average Triglycerides Normalized to Pre-Treatment (ANGPTL3 gene [7]; Day 8): 0.466
- Average Triglycerides Normalized to Pre-Treatment (ANGPTL3 gene [7]; Day 15): 0.427
- Average Triglycerides Normalized to Pre-Treatment (ANGPTL3 gene [7]; Day 22): 0.552
- Average Triglycerides Normalized to Pre-Treatment (ANGPTL3 gene [7]; Day 29): 0.391
- Average Triglycerides Normalized to Pre-Treatment (ANGPTL3 gene [7]; Day 35): 0.431
- Average Total Cholesterol Normalized to Pre-Treatment (ANGPTL3 gene [8]; Day 8): 0.965
- Average Total Cholesterol Normalized to Pre-Treatment (ANGPTL3 gene [8]; Day 15): 0.811
- Average Total Cholesterol Normalized to Pre-Treatment (ANGPTL3 gene [8]; Day 22): 0.811
- Average Total Cholesterol Normalized to Pre-Treatment (ANGPTL3 gene [8]; Day 29): 0.813
- Average Total Cholesterol Normalized to Pre-Treatment (ANGPTL3 gene [8]; Day 35): 0.770
- Average HDL Normalized to Pre-Treatment (ANGPTL3 gene [9]; Day 8): 0.904
- Average HDL Normalized to Pre-Treatment (ANGPTL3 gene [9]; Day 15): 0.871
- Average HDL Normalized to Pre-Treatment (ANGPTL3 gene [9]; Day 22): 0.737
- Average HDL Normalized to Pre-Treatment (ANGPTL3 gene [9]; Day 29): 0.781
- Average HDL Normalized to Pre-Treatment (ANGPTL3 gene [9]; Day 35): 0.723
- Average LDL Normalized to Pre-Treatment (ANGPTL3 gene [10]; Day 8): 1.134
- Average LDL Normalized to Pre-Treatment (ANGPTL3 gene [10]; Day 15): 0.909
- Average LDL Normalized to Pre-Treatment (ANGPTL3 gene [10]; Day 22): 1.089
- Average LDL Normalized to Pre-Treatment (ANGPTL3 gene [10]; Day 29): 1.034
- Average LDL Normalized to Pre-Treatment (ANGPTL3 gene [10]; Day 35): 1.008
